According to US20060134221A1, “Methods for producing block copolymer/amphiphilic particles” (priority 2004, published 2006):

Legend:
[1] = Particle size measurements using photon correlation spectroscopy (mean Z average diameter, polydispersity); type: physicochemical; details: for interaction with poloxamer: individual benzalkonium chloride analogs, thermal cycling (Example 1)
Source text: The following examples employ a Malvern 3000 HS Zetasizer to measure particle size. Particles with diameters that range from 1 to 5000 nm, can be measured using the method of photon correlation spectroscopy (PCS). Particles in this size range are in constant random thermal (or Brownian) motion. This motion causes the intensity of light scattered from the particles to form a moving speckle pattern which, with the use of optics and a photomultiplier, can be detected as a change in intensity with time. Large particles move more slowly than small particles, therefore the rate of fluctuation of light scattered from large particles is slower. PCS uses the rate of change of these light fluctuations to determine the size distribution of the particles scattering light. Data is plotted as the auto-correlation function (counts per correlator against delay time). Analysis of this function obtained over time, with a sufficient number of data points, enables the translational diffusion coefficient of the particles undergoing Brownian motion to be calculated. From this coefficient, together with the temperature and viscosity of the suspending liquid, the particle size can be calculated. For aqueous dispersions, the default set-up of the Malvern 3000 HS Zetasizer calculates the viscosity from the temperature. The best single measurement to describe the size of a poloxamer formulation is the mean Z average or the hydrodynamic diameter, which is calculated using cumulants analysis. The polydispersity describes the width of the distribution.
The size of the particles produced was determined using photon correlation spectroscopy. The particle size as reported herein refers to the mean Z average diameter also known as the hydrodynamic diameter. The surface charge of the particles was also determined using micro-electrophoresis.

[2] = Dissolution characteristics of BAK homologs in PBS; type: physicochemical
Source text: Stock solutions of benzyldimethyldodecylammonium chloride (BAK C12, Fluka Chemical Corp., Milwaukee, Wis., cat #53233), benzyldimethyltetradecylammonium chloride (BAK C14, TCI America, Portland, Oreg., cat #A0208), benzyldimethylhexadecyllammonium chloride (BAK C16, TCI America, Portland, Oreg., cat #B0237) and benzyldimethyloctadecylammonium chloride (BAK C18, TCI America, Portland, Oreg., cat #B1297) were made in PBS.

[3] = Example 9, 269 mg in 70 ml sterile water for injection, homogenized/extruded 10,000 psi, 15° C., 5 passes

Row | SMILES | interaction with poloxamer [1] | formation of cell delivery particles with CRL-1005 and DNA ([1]; thermal cycling method) | Dissolution Temperature ([2]; Concentration in PBS 1 mM) [°C] | Dissolution Temperature ([2]; Concentration in PBS 2 mM) [°C] | Dissolution Temperature ([2]; Concentration in PBS 5 mM) [°C] | formation of small, uniform cell delivery particles with CRL-1005 ([1]; Example 13, thermal cycling method) | Particle size [1, 3] [nm] | polydispersity [1, 3]
1 | CCCCCCCCCCCC[N+](C)(C)Cc1ccccc1.[Cl-] [BAK C12, benzyldimethyldodecylammonium chloride] | does not interact with poloxamer | do not form cell delivery particles | – | – | – | – | – | –
2 | CCCCCCCCCCCCCCCCCC[N+](C)(C)Cc1ccccc1.[Cl-] [BAK C18, benzyldimethyloctadecylammonium chloride] | does interact with poloxamer to produce large micron sized particles with a positive surface charge | do not form cell delivery particles | 45 | 45 | 45 | does not form small nor uniform cell delivery particles | – | –
3 | CCCCCCCCCCCCCCCC[N+](C)(C)Cc1ccccc1.[Cl-] [BAK C16, benzyldimethylhexadecyllammonium chloride] | interact with poloxamer to produce submicron particles with a positive surface charge | – | – | 45 | 45 | – | – | –
4 | CCCCCCCCCCCCCCOCC(C[N+](C)(C)CCO)OCCCCCCCCCCCCCC.[Br-] (racemic) [DMRIE, (±)-N-(2-hydroxyethyl)-N,N-dimethyl-2,3-bis(tetradecyloxy)-1-propanaminium bromide] | – | – | – | – | – | – | 65 | 0.21
5 | CCCCCCCCCCCCCC[N+](C)(C)Cc1ccccc1.[Cl-] [BAK C14, benzyldimethyltetradecylammonium chloride] | interact with poloxamer to produce submicron particles with a positive surface charge | – | – | – | 25 | – | – | –
